Measurements from US5157019A, “Serine protease inhibitors” (Monsanto Company, priority 1991, dated 1992).
Ends that are not written are not given here.

How the values were obtained:
complement activation = test: Reverse passive arthus reaction (RPAR), histopathology of injection sites; type: in vivo, guinea pigs; parameters: key: 0 indicating no acute inflamation; 1 indication minimal acute inflammation; 2 indicating mild acute inflammation; 3 indicating moderate acute inflammation; conditions: for Degree of inflammation, mean score, protease inhibitor only: guinea pig, intradermal injection of peptide without antibody
Protocol: These exemplary peptide inhibitors (peptides 13, 7 and 27) were assayed for in vivo activity in inhibiting complement activation using the reverse passive arthus reaction (RPAR). RPAR is a model of complement-mediated damage due to activation via interaction with antigen/antibody complexes. Female guinea pigs (400 gm) were pretreated intracardially with bovine serum albumin and Evans blue dye. Ninety minutes later they received bilateral intradermal injections of peptide inhibitor or control material in the thoracolumbar region. Injection sites were excised postmortem and fixed in 10% buffered formalin for pathological evaluation. The peptides were administered to obtain an initial level of […] in the circulatory system.
The histopathological results are outlined below. The degree of inflammation was scored as follows: 0 indicating no acute inflamation; 1 indication minimal acute inflammation; 2 indicating mild acute inflammation; and 3 indicating moderate acute inflammation.

Factor D = target: T1, Factor D (Homo sapiens, UniProt P00746); test: Factor D assay by inhibition of fluid phase Factor B activation; type: biochemical; conditions: Table X; μM concentration at which protease was inhibited 50%; read-out: IC50 D
T1 construct: prepared from pooled human plasma; from tissue; host or cells: pooled human plasma
T1 sequence (P00746 26-253): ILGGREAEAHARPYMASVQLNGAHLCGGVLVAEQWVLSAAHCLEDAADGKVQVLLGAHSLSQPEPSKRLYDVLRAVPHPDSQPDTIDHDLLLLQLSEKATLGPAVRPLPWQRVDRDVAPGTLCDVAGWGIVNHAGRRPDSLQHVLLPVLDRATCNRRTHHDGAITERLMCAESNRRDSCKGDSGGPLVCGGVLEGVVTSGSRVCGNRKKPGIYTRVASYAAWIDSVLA
Protocol: (§1) Highly purified C3, C4, Factor D, Factor B, and C1s were prepared from pooled human plasma. Factors B and C4 were radiolabeled by periodate oxidation of sialic acid residues, followed by reduction with tritiated sodium borohydride. In a representative experiment, a solution of 1.2 mg of factor B in 1.8 ml of PBS was treated with 70 μl of 0.1M NaIO4. After 10 min incubation on ice, excess reagent was removed by filtration over "SEPHADEX®" which is a matrix for gel chromatography (1.0 cm×20 cm). To the protein pool was added 60 μl of NaB[^3 H]4 solution and incubated for 30 min on ice. Labeled protein was separated from excess reagent by desalting or dialysis. Human C4 was radiolabeled in the same manner. Radiolabeled proteins were stored at -70° C. in PBS. The specific radioactivity of ^3 H factor B was about 10,000 CPM/μg and that of ^3 H-C4 was 5,000 CPM/μg.
The effect of the peptides on Factor D-dependent cleavage of factor B was studied by incubating 3.5 μg of Factor B, 1.5 μg of C3(H2 O) and 0.2 μl of Factor D at 37° C. for 60 min in Mg-PBS containing different concentrations of inhibitor. Uncleaved Factor B and its fragments, Ba and Bb, were first separated by SDS-PAGE and analyzed as described above. The percent cleavage of the reaction was calculated as follows: [formula]
B=radioactivity (CPM) of uncleaved factor B
Bb=radioactivity (CPM) of fragment Bb
Ba=radioactivity (CPM) of fragment Ba
(§2) Electrophoresis was carried out under reducing conditions in the Laemmli system using slab gel of 8% polyacrylamide. The gels were stained and destained (Fairbanks et al. Biochemistry (1971) 10:2606).
(§3) The percent inhibition of the reaction was calculated according to the following relationship: [formula]
(§4) A: % cleavage without inhibitor
(§5) B: % cleavage with inhibitor
(§6) The concentration inducing 50% inhibition was obtained by plotting the percent inhibition on a probability graph (National Blank Book Co., No. 12-083) on the ordinate and the log of the inhibitor concentration on the abscissa. From this graph, a 50% inhibition concentration IC50 was obtained and this value was employed to express the activity.

Thrombin = Thrombin (Homo sapiens, UniProt P00734); test: Coagulation inhibition assay, thrombin (fibrinogen clotting end point); type: biochemical; conditions: 40 μM peptide
Protocol: Inhibitory activity of subject peptides toward thrombin and Factor Xa were done in the following manner. Mix 100 μL Thrombin (3.125 units/ml, 1.125 μg/ml) in TAB with […] Peptide in TAB and incubate for 1 minute at 37° C. Add 50 μL Fibrinogen (2 mg/ml)and measure clotting end point (in seconds) in a Fibrometer (BBL) TAB=Thrombin Assay Buffer: 0.15M NaCl, 6.6 gm/L PEG-6000, 0.01M Imidazole, 0.01 CaCl2, pH 7.4

C1s = target: T2, C1s (Homo sapiens, UniProt P09871); test: C1s assay by inhibition of fluid phase C4 activation; type: biochemical; conditions: Table X; μM concentration at which protease was inhibited 50%; read-out: IC50 C1S
T2 construct: prepared from pooled human plasma; from tissue; host or cells: pooled human plasma
T2 sequence (P09871 16-688): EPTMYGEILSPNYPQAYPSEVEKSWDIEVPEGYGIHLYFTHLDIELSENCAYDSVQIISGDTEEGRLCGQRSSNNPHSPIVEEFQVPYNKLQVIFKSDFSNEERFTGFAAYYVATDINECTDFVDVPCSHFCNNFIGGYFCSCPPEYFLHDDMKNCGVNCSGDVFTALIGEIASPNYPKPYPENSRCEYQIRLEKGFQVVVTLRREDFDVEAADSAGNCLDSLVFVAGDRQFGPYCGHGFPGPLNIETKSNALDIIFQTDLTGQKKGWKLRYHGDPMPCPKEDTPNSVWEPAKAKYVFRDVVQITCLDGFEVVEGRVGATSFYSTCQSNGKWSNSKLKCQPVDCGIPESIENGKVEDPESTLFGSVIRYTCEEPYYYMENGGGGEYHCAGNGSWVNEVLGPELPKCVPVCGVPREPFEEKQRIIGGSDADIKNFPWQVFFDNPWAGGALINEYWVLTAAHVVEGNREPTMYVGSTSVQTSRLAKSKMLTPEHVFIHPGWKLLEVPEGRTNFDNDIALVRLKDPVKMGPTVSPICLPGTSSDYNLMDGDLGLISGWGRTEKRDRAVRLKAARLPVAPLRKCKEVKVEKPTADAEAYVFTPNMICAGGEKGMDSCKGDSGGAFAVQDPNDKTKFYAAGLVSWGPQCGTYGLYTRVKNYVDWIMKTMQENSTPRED
Protocol: as §1
The cleavage of C4 was studied by incubating 10 μg of tritiated C4 with 3-5 ng of C1s at 37° C. for 30 min in 100 μl of PBS (pH 7.10) containing different concentrations of inhibitor. The reaction was stopped by the addition of 2-mercaptoethanol. The extent of cleavage was analyzed by SDS-polyacrylamide gel electrophoresis. The stained bands corresponding to C4α and C4α' were cut out and sliced. The radioactivity of the fragments was measured by liquid scintillation counting. The percent cleavage of the reaction was calculated as follows: [formula]
as §2, §3, §4, §5, §6

Cathepsin G = target: T3, Cathepsin G (Homo sapiens, UniProt P08311); test: Cathepsin G assay (Suc-Ala-Ala-Pro-Phe-pNA, 410 nm); type: biochemical
T3 construct: purchased Elastin Products Company (EPC) SG-45
T3 sequence (P08311 21-255): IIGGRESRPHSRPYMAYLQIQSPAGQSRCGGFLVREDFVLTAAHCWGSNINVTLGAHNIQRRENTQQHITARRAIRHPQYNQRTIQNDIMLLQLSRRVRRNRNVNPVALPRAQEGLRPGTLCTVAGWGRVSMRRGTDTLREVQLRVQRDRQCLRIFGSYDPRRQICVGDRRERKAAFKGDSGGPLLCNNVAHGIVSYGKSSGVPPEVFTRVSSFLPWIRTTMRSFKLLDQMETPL
Protocol: Reference: Elastin Products Company (EPC) technical data sheet, cathepsin G, No. SG-45.
Method: Spectrophotometric rate determination
A) Buffer; 0.1M Tris, pH 7.5 at 25° C.
B) Substrate; 60 mM Suc-Ala-Ala-Pro-Phe-pNA obtained from Sigma Chemical Company. Solution prepared by dissolving 50 mg substrate in 1.3 ml of 1-methyl-2-pyrrolidinone. Stored at 5° C.
C) Peptide Inhibitors; 200 μM HCl salt. Depending on peptide solubility, dissolved in buffer or DMSO and then buffer added for a final concentration of 10% DMSO.
D) Enzyme; Cathepsin G, EPC SG-45, lot 85117 used for all assays, 0.0077 mg protein per mg solid determined by supplier by Bradford method. Enzyme was dissolved in buffer at a concentration of approx. 5 mg/ml solid. Solution stored on ice, used within 2 hours.
Pipetted the following into semi-micro quartz cuvettes: 0.3 ml buffer, 0.15 ml peptide solution and 0.5 ml of substrate solution. Equilibrate for 5 min. at 25° C., then add 0.05 ml of enzyme solution and monitor the release of pNA spectrophotometrically at 410 nm for at least 3 minutes. The controls contain either 0.45 ml of buffer or 20% DMSO in buffer (for a final concentration of 10% DMSO).
The rate (O.D./min) is obtained as an average over 3 minutes. [formula]

[1] = tested on: classical pathway of complement activation; test: Hemolytic assay, classical pathway (lysis of EA cells by normal human serum); type: cell-based; conditions: 25 μM peptide
Method: (§7) METHOD: Complement activation of the classical and alternative pathways is measured by lysis of EA and ER cells (respectively) after incubation with serum. Hemolysis is quantitated spectrophotometrically by the absorbance of hemoglobin at 415 nm.
EA cells: Sheep erythrocyte-antibody conjugates stored at 10^9 cells/ml in DGVB (Veronal buffer plus Ca^++ and Mg,^++, 2.5% w/v dextrose and 0.05% w/v gelatin, 0.01% sodium azide)^1
(§8) h NHS: Normal human serum incubated at 56° C. for 1 hour to inactivate complement components.
(§9) B) Wash EA cell (classical pathway) and ER cell (alternative pathway) suspensions with at least an equal volume of PBS^++ (Phosphate buffered saline, with 0.15 mM Ca^++ and 0.5 mM Mg^++). Spin at 2000 rpm for 5 minutes, decant supernatant and resuspend cells. Wash cells twice or until supernatant is obviously clear of any lysed cellular debris.
C) After the final wash, cells should be resuspended in an appropriate volume of PBS^++ so there are approximately 5×10^8 cells/ml. Dilute cell suspension 1:30 with distilled water and determine the absorbance at 541 nm spectrophotometrically. An adsorbance of 0.175 indicates 5×10^8 cells/ml. […]
(§10) G) Read absorbance (Abs) of the supernatant at 415 nm to determine cell lysis. […]
(§11) c) Dilute NHS and h NHS initially so that 100 ul of that dilution in a total of 250 μl will equal the final dilution calculated in the titer assay. […]

[2] = tested on: alternative pathway of complement activation; test: Hemolytic assay, alternative pathway (lysis of ER cells by normal human serum); type: cell-based; conditions: 25 μM peptide
Method: as §7
ER cells: Rabbit erythrocytes stored at 10^9 in Alsevers buffer, 0.01% sodium azide.^2
as §8, §9
C) After the final wash, cells should be resuspended in an appropriate volume of PBS^++ so there are approximately 5×10^8 cells/ml. Dilute cell suspension 1:30 with distilled water and determine the absorbance at 541 nm spectrophotometrically. An adsorbance of 0.175 indicates 5×10^8 cells/ml. Adjust the volume of the cell suspension accordingly with PBS^++ to get a final concentration of 2.5×10^8 cells/ml. […]
as §10, §11

HUMAN SPUTUM ELASTASE = target: T4, HUMAN SPUTUM ELASTASE (Homo sapiens, UniProt P08246); test: Elastase assay (MeO-Suc-Ala-Pro-Val-pNA); type: biochemical; conditions: 200 μM peptide
T4 construct: HUMAN SPUTUM ELASTASE; purchased Elastin Products Company SE563; host or cells: human sputum (from the product name)
T4 sequence (P08246 30-267): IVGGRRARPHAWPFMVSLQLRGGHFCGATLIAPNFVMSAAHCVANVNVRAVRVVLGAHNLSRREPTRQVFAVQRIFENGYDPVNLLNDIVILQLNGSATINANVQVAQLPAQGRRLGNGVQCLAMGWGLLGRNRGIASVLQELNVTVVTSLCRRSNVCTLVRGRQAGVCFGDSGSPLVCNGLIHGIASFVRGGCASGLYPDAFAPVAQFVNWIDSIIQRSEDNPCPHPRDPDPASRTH
Protocol: Enzyme used is "HUMAN SPUTUM ELASTASE®" which is an enzyme which is the target protease for α1 antitrypsin from Elastin Products Company, Catalog No. SE563, lot 85071, 875 units/mg as determined by supplier with N-Suc-Ala-Ala-Ala-pNA; prepared at 0.2 mg/mL in 0.1M Tris·HCl, pH 8.8 at 37 degrees C. An amount of enzyme is used to give approximately 0.1 change in Absorbance/min; which in this assay was 1 μg.
The substrate is MeO-Suc-Ala-Pro-Val-pNA, Sigma Catalog No. M-4765. About 50 mg of the substrate is dissolved in 1 ml of 1-methyl-2-pyrrolidinone and diluted to 33 mls. with 0.1M Tris-HCl, pH 7.5, containing 0.5M NaCl, and 0.01 wt % sodium azide.
Peptide solutions are prepared at 500 μM, using 1.5% of the final volume of DMSO first and diluting with distilled water (DW) or 0.1M Tris.HCl, pH 8.8 at 37 degrees C. [formula]

Plasmin = Plasmin (Homo sapiens, UniProt P00747); test: Plasmin assay (S2251); type: biochemical; conditions: 200 μM peptide
Chain of Plasmin (P00747 581-810 limits assumed): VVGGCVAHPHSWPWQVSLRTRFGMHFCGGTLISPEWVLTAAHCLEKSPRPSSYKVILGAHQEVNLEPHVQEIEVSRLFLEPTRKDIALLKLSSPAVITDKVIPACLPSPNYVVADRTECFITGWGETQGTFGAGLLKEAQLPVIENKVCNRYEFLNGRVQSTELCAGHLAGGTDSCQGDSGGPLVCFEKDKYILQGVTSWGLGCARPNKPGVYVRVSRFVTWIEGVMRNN
Chain of Plasmin (P00747 97-580 partner limits assumed): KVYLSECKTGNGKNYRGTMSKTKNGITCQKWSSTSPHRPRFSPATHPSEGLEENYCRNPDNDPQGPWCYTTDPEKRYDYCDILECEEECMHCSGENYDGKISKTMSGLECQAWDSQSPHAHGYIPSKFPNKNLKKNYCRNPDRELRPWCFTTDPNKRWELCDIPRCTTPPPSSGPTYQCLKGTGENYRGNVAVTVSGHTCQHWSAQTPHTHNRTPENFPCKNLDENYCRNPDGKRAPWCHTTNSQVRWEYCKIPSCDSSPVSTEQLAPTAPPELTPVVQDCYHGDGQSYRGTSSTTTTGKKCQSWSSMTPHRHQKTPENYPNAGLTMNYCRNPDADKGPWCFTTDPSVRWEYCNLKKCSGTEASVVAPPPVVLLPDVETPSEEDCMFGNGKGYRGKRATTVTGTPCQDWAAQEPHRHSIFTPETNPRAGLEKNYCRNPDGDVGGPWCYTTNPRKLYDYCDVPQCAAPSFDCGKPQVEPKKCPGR
Protocol: Substrate H-D-Val-Leu-Lys-pNA·HCl (S2251, Kabi), 10 mM in deionized water; may be frozen for future use.
Buffer 50 mM Tris·HCl, pH 7.4 containing 0.01% Tween 80
Inhibitor 400 μM in deionized water
Enzyme Plasmin; 0.5 U/ml in buffer (Cat #P-4895, Sigma Chemical Co., St. Louis, Mo.)
Mix 220 μL buffer, 200 μL deionized water (control) or inhibitor solution and 40 μL substrate. Incubate for 2 min at 37° C. Transfer 230 μL to a microcuvette, add 40 μL of enzyme, mix, and measure rate spectrophotometrically at 405 nm for about 5 min. Inhibition (%) is calculated in the same manner as in previous assays.

[3] = 200 μM peptide (head of Table IX)

Row | Degree of inflammation, mean score, protease inhibitor only (complement activation) | IC50 (Factor D) | inhibition at 40 µM (Thrombin) | IC50 (C1s) | inhibition at 200 µM (Cathepsin G; [3]) | Elastase Inhibition (HUMAN SPUTUM ELASTASE) | Plasmin % inhibition (Plasmin) | Cathepsin G % inhibition (Cathepsin G; 100 μM peptide (Tables VI, VIII)) | Cathepsin G Inhibition (Cathepsin G; [3]) | Substance | Degree of inflammation, mean score, antibody plus protease inhibitor (complement activation; guinea pig RPAR, intradermal anti-bovine serum albumin plus peptide, antibody only mean score 3) | % inhibition, classical pathway (CP) [1] | % inhibition, alternative pathway (AP) [2]
1 | 0 | 145 µM | 50% | 39 µM | 28% |  |  |  |  | AGRSLNPNRVTFKANRPFLVFI [Peptide 7] |  |  | 
2 | 0 |  |  |  |  |  |  |  |  | GVRGPRVVERVTFKANRPFLVFI-OH [Peptide 13] | 1 | 75% | 61%
3 |  |  |  |  |  | 0% | 67% | 0% | 0% | LRYNKPFILVLFETPGNSLVFLGRISNPATK [Peptide 23] |  |  | 
